Experimental data as given in patent US11638427B2, “Methods and compositions for altering secondary metabolites in plants” (Impello Biosciences, Inc, priority 2020, dated 2023).

Tested on: hemp varietal 'Bialobreszkie'
Assay: MeJA foliar spray on fiber hemp, non-targeted metabolomic analysis (UPLC-MS, GC-MS)
Format: in vivo, Cannabis spp.
Description: The efficacy and effectiveness of an eliciting composition and methods of use to alter secondary metabolite production were tested in a controlled environment with a commercial certified hemp varietal ‘Bialobreszkie’ (Bija Hemp, Denver, Colo., USA). […] This is in comparison with high metabolite-producing hemp varieties that typically yield greater than 10% by weight total cannabinoids.
A non-targeted semi-quantitative metabolomic analysis was conducted to provide relative values for each detected analyte (i.e., compound) rather than absolute quantification, but with much greater detection limits than typical quantitative analysis provides. Additionally, the non-targeted nature allows essentially every compound that is present in the sample to be recorded and scored relative, providing a picture of the effect that each treatment has on the entire metabolome of the plant rather than only a snapshot of a few metabolites.
One hundred and forty-four (144) ‘Bialobreszkie’ variety hemp seeds were surface sterilized in a 2% NaOCI solution for 5 minutes and primed for 12 hours in a 1:30 aqueous solution of TRIBUS® Original (a commercial plant growth promoting bacterial consortia) contained in a 50 mL centrifuge tube and placed on an orbital shaker at 80 rpm, then hand sewn into two 72-cell trays filled with commercial coco coir (Canna Gardening, NL). Of the 144 seeds, 112 germinated well and were selected for use in the trial. After two weeks of development in seedling trays, all 112 plants were transplanted into 4” square plastic pots filled with pure coco coir media and watered-in with a 4-20-39 fertilizer supplemented with calcium nitrate, magnesium sulfate, and TRIBUS® beneficial bacteria at a standardized rate. At the time of transplant, all plants were transitioned into the flowering stage by manipulating the photoperiod to a 12-hour light/12-hour dark schedule per 24-hour day.
Plants were transplanted successively without regard to their size or physical attributes on Apr. 20, 2019. The square pots were arranged in an […] grid on a 4′×8′ black plastic bench under two×1000-watt DE-HPS lamps (Gavita International BV). Each pot was numbered in numerical order, row by row. After all plants/pots were labelled, a research randomizer tool (randomizer.org) was used to randomly generate 8 groups with 14 unique numbers in each group, ranging from 1-112.
Treatment groups differed only in the frequency and timing of applications. Chemical composition of the elicitor formula remained identical between all treatment groups and consisted of a 7.5 mM methyljasmonate (MeJA, technical grade, TCI America) active ingredient applied in an aqueous spray consisting of reverse-osmosis purified water, supplemented only with 0.1% v/v polysorbate-20 (TWEEN®-20, reagent grade, VWR) as an emulsifier to support oil-in-water stability. […] Treatment groups were defined as follows: […]
All plants receiving treatments were sprayed-to-drip with each application to ensure sufficient coverage. Treatments were made to all treatment plants during daylight hours but out of direct light. Plants were temporarily removed from the growing bench for treatment applications in order to prevent overspray of the treatment onto other plants in the experiment. In such instances, plants were returned to the growing bench immediately after the foliage had dried. Plants were cultivated under identical and typical growing conditions for 47 days, then whole plants were harvested successively and within one hour of each other, labeled with their corresponding plant number, and hung upside down in a well-ventilated room and allowed to dry. Loss of samples occurred either from plants dying during the experiment or insufficient flower set. All other plants in the experiment were approximately the same size and had similar numbers and size of flowers.
Each of the 8 groups (7 treatment and 1 control) began the trial with 14 plants. 109 of 112 samples were run in the assay. […]

[1] = 7.5 mM foliar spray, of the 597

In the case of CC/C=C\C[C@H]1C(=O)CC[C@@H]1CC(=O)OC [MeJA, Methyl Jasmonate], the “non-volatile hemp metabolome compared to the Control group (UPLC-MS)” value (7.5 mM applied every 7, 14 or 28 days, or only once 72 hours prior to harvest) is reported as “substantially altered”, the “endogenous levels of jasmonate derivatives” value (7.5 mM exogenous foliar application) is reported as “increase endogenous levels of numerous jasmonate derivaties” and the “significantly altered compounds not annotated” value [1] is reported as 466. For the same molecule, the “significantly altered compounds putatively of superclass Alkaloids and derivatives” value [1] was 5, the “significantly altered compounds putatively of superclass Benzenoids” value [1] was 5 and the “significantly altered compounds putatively of superclass Lipid or Lipid like” value [1] was 78. For the same molecule, the “significantly altered compounds putatively of superclass Organic acids and derivatives” value [1] was 1, the “significantly altered compounds putatively of superclass Organic nitrogen compounds” value [1] was 1 and the “significantly altered compounds putatively of superclass Organic oxygen compounds” value [1] was 9. For the same molecule, the “significantly altered compounds putatively of superclass Organoheterocyclic compounds” value [1] was 10, the “significantly altered compounds putatively of superclass Phenylpropanoids and polyketides” value [1] was 14 and the “non-volatile compounds significantly (p<0.05) altered by one or more treatment groups” value (7.5 mM foliar spray, of the 2,000+ compounds detected via UPLC-TOF) was 597. For the same molecule, the “analytes with significantly altered relative abundance compared to the control group” value (Treatment 1: 7.5 mM, one application every 7 days from first day of flowering) was 551, the “analytes with significantly altered relative abundance compared to the control group” value (Treatment 2: 7.5 mM, one application every 14 days from first day of flowering) was 497 and the “analytes with significantly altered relative abundance compared to the control group” value (Treatment 3: 7.5 mM, one application every 28 days from first day of flowering) was 41. The “analytes with significantly altered relative abundance compared to the control group” value (Treatment 4: 7.5 mM, only one application on the first day of flowering) was “did not significantly altered the relative abundance of any analytes”, the “analytes with significantly altered relative abundance compared to the control group” value (Treatment 5: 7.5 mM, only one application on the 30th day of flowering) was 4 and the “analytes with significantly altered relative abundance compared to the control group” value (Treatment 6: 7.5 mM, only one application 72 hours prior to harvest) was 399. For the same molecule, the “analytes with significantly altered relative abundance compared to the control group” value (Treatment 7: 7.5 mM, only one application 24 hours prior to harvest) was 216.
